These results are taken from patent US20210300913A1, “DEUTERATED DERIVATIVES OF LANIFIBRANOR” (lNVENTlVA, priority 2018, published 2021).

SMILES strings stand for the structures.

Common to all, as to assay type: cell-based
Assay [1] concerns the target T1, human receptor PPARδ-Gal4 (Homo sapiens, UniProt Q03181).
T1 sequence (Q03181 171-441 limits assumed): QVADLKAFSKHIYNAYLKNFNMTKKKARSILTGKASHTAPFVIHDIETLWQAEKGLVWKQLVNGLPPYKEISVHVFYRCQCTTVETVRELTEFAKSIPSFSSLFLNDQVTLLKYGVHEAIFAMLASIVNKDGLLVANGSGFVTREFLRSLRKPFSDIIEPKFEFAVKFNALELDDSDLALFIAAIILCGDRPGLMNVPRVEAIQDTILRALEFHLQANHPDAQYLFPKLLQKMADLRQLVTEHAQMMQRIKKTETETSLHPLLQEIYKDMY
Kind of assay: PPAR-Gal4 transactivation test in transfected Cos-7 cells (luciferase reporter), PPARδ. The note with it: for EC50: Cos-7 cells, overnight incubation; for Human receptor PPARδ Top: induction as percentage of reference GW501516 at 10^-8 M (=100%). How it is done:
(§1) A transactivation test was used as the primary screening test. Cos-7 cells were transfected with a plasmid expressing a chimera of a murine or human receptor PPAR-Gal4 (receptor PPARα-Gal4 or PPARδ-Gal4 or PPARγ-Gal4) and of a reporter plasmid 5Gal4pGL3 TK Luc. The transfections were carried out using a chemical agent (Jet PEI). Transfected cells were distributed into 384 well plates and allowed to stand for 24 hours. At 24 hours the culture medium was changed. The products to be tested were added (final concentration between 10^−4 and 3.10^−10 M) to the culture medium. After overnight incubation, luciferase expression was measured after addition of “SteadyGlo” according to the manufacturer's instructions (Promega).
(§2) Fenofibric acid at 10^−5 M (PPARα agonist), GW501516 at 10^−8 M (PPARδ agonist) and rosiglitazone at 10^−6 M (PPARγ agonist) were used as references.
(§3) The results are expressed as the induction rate (number of times) compared to the basal level as a percentage of activity of the adequate reference (reference=100%). Effect-concentration curves and EC50 were calculated using Assay Explorer (MDL) software.
In general terms: A reporter such as luciferase makes a cellular process visible.

Assay [2] addresses T2, human receptor PPARα-Gal4 (Homo sapiens, UniProt Q07869).
T2 sequence (Q07869 200-468 limits assumed): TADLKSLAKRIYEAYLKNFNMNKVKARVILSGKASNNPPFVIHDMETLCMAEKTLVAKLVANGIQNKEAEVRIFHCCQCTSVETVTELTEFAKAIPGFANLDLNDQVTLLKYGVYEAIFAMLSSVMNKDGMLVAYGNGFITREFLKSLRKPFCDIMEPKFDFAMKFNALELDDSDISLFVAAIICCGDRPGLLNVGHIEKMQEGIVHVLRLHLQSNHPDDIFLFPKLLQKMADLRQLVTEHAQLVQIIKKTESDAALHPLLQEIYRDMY
The experiment in a line: PPAR-Gal4 transactivation test in transfected Cos-7 cells (luciferase reporter), PPARα. The note with it: for EC50: Cos-7 cells, overnight incubation; for Human receptor PPARα Top: induction as percentage of reference fenofibric acid at 10^-5 M (=100%). How it is done: as §1, §2, §3

In assay [3] the target is T3, human receptor PPARγ-Gal4 (Homo sapiens, UniProt P37231).
T3 sequence (P37231 238-505 limits assumed): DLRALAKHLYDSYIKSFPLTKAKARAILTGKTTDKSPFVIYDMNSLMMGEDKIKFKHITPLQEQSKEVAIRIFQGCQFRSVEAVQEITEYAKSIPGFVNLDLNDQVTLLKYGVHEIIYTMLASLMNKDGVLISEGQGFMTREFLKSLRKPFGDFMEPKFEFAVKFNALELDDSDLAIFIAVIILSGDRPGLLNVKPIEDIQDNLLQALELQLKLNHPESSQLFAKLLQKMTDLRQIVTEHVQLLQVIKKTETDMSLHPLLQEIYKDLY
Kind of assay: PPAR-Gal4 transactivation test in transfected Cos-7 cells (luciferase reporter), PPARγ. The note with it: for EC50: Cos-7 cells, overnight incubation; for Human receptor PPARγ Top: induction as percentage of reference rosiglitazone at 10^-6 M (=100%). The protocol: as §1, §2, §3

Broadly, the EC50 is the concentration that produces a half-maximal response. Read a low EC50 as a more potent agent. Turning to `O=C(O)CCCc1cc2cc(Cl)ccc2n1S(=O)(=O)c1ccc2ncsc2c1` [Example 1], the EC50 in assay [1] amounted to 952 nM; in assay [2], 2320 nM; in assay [3] it was 85 nM.

For the molecule `[2H]C([2H])(C(=O)O)C([2H])([2H])C([2H])([2H])c1cc2cc(Cl)ccc2n1S(=O)(=O)c1ccc2ncsc2c1` [Example 2, 4-[1-(1,3-Benzothiazol-6-ylsulfonyl)-5-chloro-indol-2-yl]-2,2,3,3,4,4-hexadeuteriobutanoic acid], in assay [1], the EC50 was determined as 1180 nM and the “Human receptor PPARδ Top” value is on record as 80%. In assay [2], the EC50 turned out to be 2280 nM and the “Human receptor PPARα Top” value is recorded as 62%. In assay [3], the EC50 was found to be 136 nM and the “Human receptor PPARγ Top” value is on record as 50%.

In the case of `[2H]c1nc2ccc(S(=O)(=O)n3c(CCCC(=O)O)cc4cc(Cl)ccc43)cc2s1` [Example 1], the “Human receptor PPARδ Top” value in assay [1] came to 80%. Also, in assay [2], the “Human receptor PPARα Top” value came to 67%. Further, the “Human receptor PPARγ Top” value in assay [3] was 53%.
